Experiment: Thermo Gravimetric Analyzer (TGA) % volatiles (water)
Type: physicochemical
Conditions: 10° C./min to 110° C., isothermal hold 60 min
Protocol: 10 mg was collected for each sample. A heating ramp of 10° C./min from room temperature to 110° C. with an isothermal hold at 110° C. for 60 min was used in the analysis. Table 4 below depicts the % volatiles (water) which were found versus the theoretical values.

Row | SMILES | % Volatiles Found [%]
1 | O=P([O-])([O-])O.[K+].[K+] [Potassium Phosphate Dibasic] | 2.7
2 | O=S([O-])([O-])=S.[Na+].[Na+] [Sodium Thiosulfate] | 33
